What was measured:
PC-3 cells = assay: Hoechst dye-DNA fluorescence growth assay, PC-3 cells; type: cell-based, human; details: varying concentrations (FIG. 8)
Procedure: (§1) For DNA assay, each culture plate was thawed and equilibrated to room temperature under protection from light. Hoechst dye was then added to each well in 200 μL of high salt TNE buffer (10 mM Tris, 1 mM EDTA, 2 M NaCl [pH 7.4]) at a final concentration of 6.7 μg/mL. After further incubation at room temperature for 2 hours under protection from light, culture plates were scanned on the CytoFluor 2350™ scanner using the 360/460 nm filter excitation and emission set. The DNA fluorescence intensity was used as a measure of cell growth.
(§2) The effects of varying concentrations of Mito-T drug on the growth of LNCaP and PC-3 cells over a period of 4 days was assayed using the Hoechst dye-DNA fluorescence assay described above. In these and all subsequent cell culture studies described below, each data point and its associated error bar are respectively, an average value and the standard deviation of data obtained from six wells of a 96-well plate run in duplicate in three separate sets of experiments.

LNCaP cells = assay: Hoechst dye-DNA fluorescence growth assay, LNCaP cells; type: cell-based, human; details: varying concentrations (FIG. 8)
Procedure: as §1, §2

CC1(C)CC(OCCCCCCCCCC[P+](c2ccccc2)(c2ccccc2)c2ccccc2)CC(C)(C)N1[O] [MitoT-10, [4-(10-triphenylphosphonium)decyloxy-2,2,6,6-tetramethylpiperidinyloxy, freeradical]bromide]
growth and proliferation (PC-3 cells): inhibitory effect | growth and proliferation (LNCaP cells): inhibitory effect
